Assay results from US12624019B2, “Indazole derivative, and preparation method therefor and use thereof” (Leadingtac Pharmaceutical (Shaoxing) Co., Ltd., priority 2020, dated 2026).

Tests used:
[1] = Pharmacokinetic study in mice; assay type: in vivo, SD mice
Protocol: The following experimental scheme was used to study the pharmacokinetic behavior of the compound of the present invention in mice and evaluate its pharmacokinetic characteristics.
Experimental scheme: 3 healthy SD mice, male, weighing […], were given 100 mg/kg compound by gavage with a volume of 10 mL/kg, prepared with […] (w/v). Before the test, they were fasted for 12 hours and freely drank water. Food was uniformly consumed 4 h after administration.
Three healthy SD mice, male, weighing […], were given 1 mg/kg compound intravenously with a volume of 5 mL/kg, prepared with 5% DMSO/15% solutol %80% PBS (w/v). Before the test, they were fasted for 12 hours and freely drank water. Food was uniformly consumed 4 h after administration.
0.1 mL of venous blood was taken through the submaxillary venous plexus of mice at 0.08 h, 0.25 h, 0.5 h, 1 h, 2 h, 4 h, 8 h, 24 h after gavage administration and 0.08 h, 0.25 h, 0.5 h, 1 h, 2 h, 4 h, 8 h, 24 h after intravenous administration, placed in a heparin test tube, centrifuged at 11000 rpm for 5 min, and plasma was separated, the concentration of compounds in plasma was determined by liquid chromatography-tandem mass spectrometry.

IKZF1 = biological target: T1, IKZF1 (Homo sapiens, UniProt Q13422+Q96SW2); assay: Degradation of IKZF1 in L363 cells by Western blot; assay type: cell-based; conditions: compound 1000 nM, 16 hours
T1 construct: endogenous in cells; host or cells: L363 cells
T1 sequence (Q13422 whole entry): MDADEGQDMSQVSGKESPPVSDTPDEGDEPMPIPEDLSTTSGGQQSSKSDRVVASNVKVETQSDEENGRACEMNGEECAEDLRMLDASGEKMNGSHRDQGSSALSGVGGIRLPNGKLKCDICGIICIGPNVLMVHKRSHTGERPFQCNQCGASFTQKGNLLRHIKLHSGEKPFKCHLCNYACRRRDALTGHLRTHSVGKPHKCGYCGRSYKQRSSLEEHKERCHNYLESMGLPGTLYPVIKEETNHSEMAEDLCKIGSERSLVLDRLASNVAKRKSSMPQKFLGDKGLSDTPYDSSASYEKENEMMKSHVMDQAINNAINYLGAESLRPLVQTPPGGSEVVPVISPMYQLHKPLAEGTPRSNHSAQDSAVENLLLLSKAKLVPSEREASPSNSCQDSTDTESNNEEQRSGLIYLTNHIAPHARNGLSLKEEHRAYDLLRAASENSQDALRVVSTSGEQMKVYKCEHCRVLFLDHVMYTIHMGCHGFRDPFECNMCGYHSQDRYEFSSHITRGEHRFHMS
T1 sequence (Q96SW2 whole entry): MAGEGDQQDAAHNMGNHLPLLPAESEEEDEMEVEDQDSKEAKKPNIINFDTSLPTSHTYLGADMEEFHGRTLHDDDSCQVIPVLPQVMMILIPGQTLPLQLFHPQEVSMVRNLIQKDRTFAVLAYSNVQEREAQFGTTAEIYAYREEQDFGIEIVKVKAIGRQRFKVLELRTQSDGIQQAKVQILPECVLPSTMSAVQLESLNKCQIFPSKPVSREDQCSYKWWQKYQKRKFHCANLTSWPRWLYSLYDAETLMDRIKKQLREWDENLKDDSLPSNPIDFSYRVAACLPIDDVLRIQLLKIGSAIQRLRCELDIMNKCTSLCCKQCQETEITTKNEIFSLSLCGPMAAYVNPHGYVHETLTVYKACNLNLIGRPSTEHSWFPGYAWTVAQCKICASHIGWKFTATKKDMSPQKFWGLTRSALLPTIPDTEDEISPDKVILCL
T1 sequence (Q16531 whole entry partner): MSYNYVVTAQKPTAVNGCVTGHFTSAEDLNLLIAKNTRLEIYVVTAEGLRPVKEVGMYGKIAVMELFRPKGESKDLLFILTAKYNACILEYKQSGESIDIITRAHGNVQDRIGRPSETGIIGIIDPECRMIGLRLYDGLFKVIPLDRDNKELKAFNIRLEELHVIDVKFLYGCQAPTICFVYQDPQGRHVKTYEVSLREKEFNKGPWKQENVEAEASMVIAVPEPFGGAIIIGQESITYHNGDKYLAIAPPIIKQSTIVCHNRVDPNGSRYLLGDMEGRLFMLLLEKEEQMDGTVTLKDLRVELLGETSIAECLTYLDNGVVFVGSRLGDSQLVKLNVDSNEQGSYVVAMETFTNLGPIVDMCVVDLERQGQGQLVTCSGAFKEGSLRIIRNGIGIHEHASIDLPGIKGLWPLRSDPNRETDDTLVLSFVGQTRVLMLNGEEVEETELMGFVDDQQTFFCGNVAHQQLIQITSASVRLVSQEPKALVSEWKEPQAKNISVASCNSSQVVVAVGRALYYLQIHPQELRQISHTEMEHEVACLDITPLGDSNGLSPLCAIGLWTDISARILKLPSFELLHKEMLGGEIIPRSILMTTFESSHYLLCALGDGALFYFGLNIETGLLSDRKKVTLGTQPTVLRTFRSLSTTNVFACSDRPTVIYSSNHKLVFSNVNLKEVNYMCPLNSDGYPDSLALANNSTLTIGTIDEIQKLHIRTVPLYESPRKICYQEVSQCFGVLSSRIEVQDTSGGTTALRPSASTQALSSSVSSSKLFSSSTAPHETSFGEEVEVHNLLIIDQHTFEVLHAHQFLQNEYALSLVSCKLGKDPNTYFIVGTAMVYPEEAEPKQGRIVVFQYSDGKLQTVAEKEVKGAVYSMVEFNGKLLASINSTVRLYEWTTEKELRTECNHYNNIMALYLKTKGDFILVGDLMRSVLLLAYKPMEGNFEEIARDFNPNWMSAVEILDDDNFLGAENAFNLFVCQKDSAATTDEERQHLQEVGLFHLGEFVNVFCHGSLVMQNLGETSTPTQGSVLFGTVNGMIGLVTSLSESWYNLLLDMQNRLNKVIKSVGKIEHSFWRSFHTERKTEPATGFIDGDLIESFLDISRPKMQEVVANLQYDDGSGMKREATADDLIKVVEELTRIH
Protocol: The 24-well cell culture plate was inoculated with 0.95 mL L363 cells (Nanjing Co-bioer) per well with a cell density of 6×10^5 cells/well. The cell plate was placed in a 5% carbon dioxide incubator and cultured at 37° C. for 8 hours, then 50 μL of compound solution was added. The final concentration of the compound was 1000 nM. After continuing to culture for 16 hours, the cells were collected into a 1.5 mL centrifuge tube and centrifuged at 3000 rpm and 4° C. for 5 minutes. Cell precipitation was washed twice with 1×DPBS, resuspended cells were lysed with 100 μL lysate (cell lysate was Western and IP cell lysate (Beyotime), supplemented with 1 mM mixture of phenylmethylsulfonyl fluoride and protease inhibitor (Beyotime)), left on ice for 30 minutes, then centrifuged at 14000 g at 4° C. for 10 minutes, and the supernatant was taken to detect IKZF1 and IKZF3 protein level by Western blot.
The total protein concentration in the supernatant of cell lysis was determined by BCA protein quantitative kit (Tiangen). According to the concentration of total protein detected by BCA, the supernatant was adjusted to […] with PBS and 5×SDS-PAGE protein loading buffer (Beyotime), bathed in water at 100° C. for 10 minutes, then placed in ice bath for 5 minutes, centrifuged at 14000 g and 4° C. for 5 minutes, and then collected as WB loading sample. Prefabricated glue (KeyGEN) was used for protein electrophoresis with a loading amount of 10 μL (total protein 2 μg). After Tris-MOPS-SDS electrophoresis solution (Adamas), 120V constant pressure electrophoresis was performed. After electrophoresis, the protein on the adhesive strip was transferred to PVDF membrane with a constant current of […] for 50 minutes. After the membrane was transferred, the membrane was incubated in 5% bovine serum albumin solution for 2 hours at room temperature. After blocking, PVDF membranes were incubated with IKZF1 primary antibody (CST) and IKZF3 primary antibody (Abcam) overnight at 4°, the membranes were washed with TBST buffer (2.4 g Tris, 8.8 g NaCl, 1.5 mL Tween 20, pH adjusted to 7.4, constant volume to 1 L) for 30 minutes, incubated with secondary antibody (Abcam) for 2 hours at room temperature, finally incubated with Clarity Western ECL Substrate (BIO-RAD) for 5 minutes for luminescence development, chemiluminescence imaging system (Clinx, chemiScope 6200 Touch) was used for development and protein mapping photography. The protein map was analyzed by Clinx chemiluminescence analysis software for grayscale values. Using the formula: grayscale correction value=(target protein grayscale value/corresponding internal reference grayscale value)×10^3, the grayscale correction value of each sample was calculated. The degradation rate was calculated by comparing with the grayscale correction value of the control group.

[2] = male, SD, mouse, po, gavage administration 100 mg/kg, plasma

- CL_pred ([1]; intravenous injection 1 mg/kg): 6.7 mL/min/kg
- Vss_pred ([1]; intravenous injection 1 mg/kg): 4.6 L/kg
- AUC(0-t) ([1]; male, SD, mouse, intravenous injection 1 mg/kg, plasma): 2150 ng·h/mL
- bioavailability ([1]; male, SD, mouse, plasma, po, gavage 100 mg/kg vs intravenous 1 mg/kg): 14.2%
- AUC(0-t) [1, 2]: 30500 ng·h/mL
- Cmax [1, 2]: 1860 ng/mL
- IKZF1 degradation rate (%) (IKZF1): 26.7 ± 2.4%
Compound: CC(C)(O)c1cc2nn(C3CCN(CCCC4CCN(c5ccc6c(c5)C(=O)N(C5CCC(=O)NC5=O)C6=O)CC4)CC3)cc2cc1NC(=O)c1cccc(C(F)(F)F)n1 (stereo not shown) [Example 6, N-(2-(1-(3-(1-(2-(2,6-dioxopiperidin-3-yl)-1,3-dioxoisoindolin-5-yl)piperidin-4-yl)propyl)piperidin-4-yl)-6-(2-hydroxyprop-2-yl)-2H-indazol-5-yl)-6-(trifluoromethyl) pyridinecarboxamide]
